Data as given in publication PMC6928863, “Development of Human Serum Albumin Selective Fluorescent Probe Using Thieno[3,2-b]pyridine-5(4H)-one Fluorophore Derivatives” (Sensors (Basel, Switzerland), 2019).

Molecular target: T1, human serum albumin (HSA) (Homo sapiens, UniProt P02768)
T1 construct: gene ALB
Test: fluorescence titration (one-site fit), Job's plot […], site-marker displacement
Format: binding

T1 sequence (P02768 25-609): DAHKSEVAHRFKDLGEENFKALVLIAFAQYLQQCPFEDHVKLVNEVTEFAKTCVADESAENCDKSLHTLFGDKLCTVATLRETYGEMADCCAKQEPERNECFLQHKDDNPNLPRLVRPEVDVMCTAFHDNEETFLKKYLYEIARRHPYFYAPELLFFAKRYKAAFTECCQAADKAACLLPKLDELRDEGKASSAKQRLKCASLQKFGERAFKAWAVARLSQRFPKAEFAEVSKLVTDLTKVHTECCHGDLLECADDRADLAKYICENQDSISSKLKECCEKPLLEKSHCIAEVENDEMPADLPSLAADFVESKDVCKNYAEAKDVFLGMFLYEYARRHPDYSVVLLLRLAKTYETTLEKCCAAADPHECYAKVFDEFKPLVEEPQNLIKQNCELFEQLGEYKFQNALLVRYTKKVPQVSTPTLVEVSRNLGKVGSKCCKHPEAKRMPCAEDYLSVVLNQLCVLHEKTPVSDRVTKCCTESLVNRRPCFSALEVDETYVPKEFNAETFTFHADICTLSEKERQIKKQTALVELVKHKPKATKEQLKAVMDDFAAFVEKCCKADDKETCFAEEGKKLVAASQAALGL

Kd: 5.4 µM
Structure (SMILES): CCN(CC)c1ccc(-c2cc3c(s2)c(C(=O)O)cc(=O)n3C)cc1 [compound 4, KF 4]
